Measured values taken from US12539281B2 (priority 2021, dated 2026).

What was measured:
[1] = Comparison of the toxicity of IA NEO100 and IA EA (Experiment 21)
Procedure: The safety profile of IA 0.3% NEO100 vs. IA 0.3% EA are compared. […] There are 15 experimental mice in each testing group. The potential adverse effects are evaluated.

[2] = test system: blood-brain barrier (BBB); experiment: IA ethyl alcohol, NEO100 or mannitol mediated BBB disruption, extravasated EB dye in perfused mouse brain (Experiments 1-3); type: in vivo, mice; conditions: for EB dye / EB dye penetration level / Patchy, or punctate pattern of EB dye: perfused mouse brain
Procedure: The method of IA and IC injection is similar to the IV push in the clinic, which comprises essentially the steps of: • pushing the injection composition at a particular infusion flow rate immediately after the placement of the IA catheter into the internal carotid artery (ICA) or the insertion of the injection needle into the left ventricle via the ultrasound-guided intracardiac (IC) puncture at room temperature.
When performing the IA and IC injections, the infusion flow rate is about 5-7 μl/second (0.3-0.45 ml/min), the infusion volume is about […] of the body weight (at 1 μl/g, volume/weight ratio), and USP purified water or sodium chloride is used to reconstitute varied EA solutions at room temperature.
Intracardiac injection of NEO100 or EA can be carried out through the procedure of ultrasound-guided intracardiac (IC) injection. […] The mouse is anesthetized in an induction chamber using 2-3% isoflurane in 100% oxygen at a rate of 0.2-0.5 L/min. Fur over the thorax area is removed and the animal is placed in a stereotactic frame in supine position, securing the upper and lower limbs to avoid body movement. The ultrasound transducer is placed above the chest of the animal, and the injection syringe is anchored to a platform to avoid erratic needle movements. An electrocardiogram monitor is used to monitor heart function during the intracardiac injection.
EB dye is used as the non-BBB permeable substance.
Photographs of the perfused brain tissues of the experimental mice after treatment are taken.
Extravasated EB dye is used as the non-BBB permeable substance.

[3] = test system: blood-brain barrier (BBB)
Text: EB dye is used as the non-BBB permeable substance. […] Photos of the perfused brain tissues are taken for observations and comparisons.
EB dye is used as a non-BBB-permeable substance. […] Photographs of the perfused brain tissues harvested at different time points are taken for observation and comparison, as shown in FIG. 9 of the drawings.
As a negative control, photographs of perfused brain tissues were taken from the following animals: the normal untreated mice; the mice were intravenously administered 2% EB; and the mice received the same dose of 0.3% EA mixed with a 2% EB solution intravenously as applied via intracardiac injection.

brain tumor = conditions: IA ethyl alcohol + IA or IV Anti-PD-1, mice
Text: The standard detailed protocol is followed. Primary antibodies used are FITC-conjugated Armenian hamster anti-mouse PD-1 (11-9985-82, ThermoFisher Scientific, San Diego, CA USA), and rat anti-mouse PD-1 (BE0146, Bio X Cell, West Lebanon, NH USA). The secondary antibody is ALEXA FLUOR® 647 goat anti-rabbit (ab150083, Abcam).

[4] = test system: blood-brain barrier (BBB); conditions: intracardiac EA 3%, 1%, 0.3%, 0.1%, and 0.01% in 2% EB, rats
Text: Set up the ultrasound imaging system before anesthetizing the rats; to anesthetize the rats in an induction chamber using 3-4% isoflurane in 100% oxygen at a rate of 0.2-0.5 L/min; to confirm proper anesthetization before performing imaging by pinching the toe, rolling the rats. • 2. Remove the fur over the thorax area using hair removal cream. • 3. Place the experimental animal on the imaging table in the supine position and secure both the upper and lower limbs with adhesive tape to avoid body movement during the procedure. • 4. Clean up the skin of the thorax area using a 10% povidone/iodine swab followed by a 70% ethanol swab. Apply a thick layer of gel to the thorax area of the animal. • 5. Mount the transducer and adjust the position until the left ventricle is clearly visible. • 6. […] To visualize pulsating blood, keep a small air column in the syringe; advance the syringe towards the animal thorax, adjust the needle trajectory using the ultrasound guidance, and enter the left ventricle, and to complete the IC injection within 30 seconds. • 7. Withdraw the needle, release that rat, and monitor until complete recovery from anesthesia
The rats are treated with varying concentrations of EA via intracardiac injection. […] Sham control (without treatment as negative control) is included in this experiment.

[5] = test system: blood-brain barrier (BBB); conditions: rats
Text: In this experiment, the microcatheter is placed in the left internal carotid artery (ICA). The left internal carotid artery (ICA) leads to the left hemisphere of the brain. (That is, the selected intracerebral artery is the left internal carotid artery (ICA); and the target area is the left hemisphere of the brain.)
Evans blue (EB) dye is used as the non-BBB permeable substance.
To validate the limited, localized, and targeted BBB opening mediated by intra-arterial EA around the area supplied by the corresponding artery, a microcatheter is inserted from the CCA, proceeded along the ICA, positioned at the origin of the MCA, and infused with 300 μL of a 3% EA in a 2% EB dye solution. The effect of the compromised BBB can be determined by observing the penetration of the EB dye (doesn't pass through the BBB in normal physical condition).

[6] = cited from earlier work
[7] = test system: blood-brain barrier (BBB); experiment: Microcatheter 3% EA-mediated delivery of Alexa Fluor 647-labeled anti-human IgG antibody, confocal imaging (Experiment 25); type: in vivo; conditions: 300 μL 3% EA via microcatheter then 10% labeled antibody, rats
Procedure: Following the perfusion of 300 μL of 3% EA through the intracerebral artery microcatheter, 10% Alexa Fluor® 647-labeled anti-human IgG antibody [EPR4421] (Ab307521, Abcam, UK) is slowly injected along the catheter (5-10 minutes). Two hours later, the brain tissue is perfused and removed after euthanasia. The pathological tissue sections are stained with DAPI, and confocal imaging is performed to evaluate the distribution of Alexa Fluor® 647-labeled anti-human IgG antibody in the rat brain. The experimental rats are injected with 300 μL of 0.9% NaCl without any concentration of EA as a negative control.
The blue color comes from the nuclei stained with DAPI. The pink color comes from the rabbit anti-human IgG antibody labeled with Alexa Fluor 647.

syngeneic mouse glioma = conditions: IA ethyl alcohol+Anti-PD-1 antibody vs untreated control and IV Anti-PD-1 antibody
Procedure: Standard protocols for immunohistochemistry are followed. The primary antibody is rabbit anti-CD8 (ab4055, Abcam). Three independent experimental fields are examined, and images are analyzed and quantitated using ImageJ software of the National Institutes of Health.

tight junction proteins = conditions: immediately after IA EA is administered
Text: The membrane and cytosolic proteins are extracted with a MEM-PER™ Plus Membrane Protein Extraction Kit (ThermoFisher Scientific, Waltham, MA USA). Proteins are separated by SDS-PAGE and transferred to nitrocellulose membranes. Primary antibodies used are rabbit anti-claudin-3 (ab15102), rabbit anti-claudin-5 (ab15106), rabbit anti-claudin-6 (ab99226), rabbit anti-JAM (ab125886), rabbit anti-occludin (ab222691, 1:200, Abcam, Cambridge, MA USA), and mouse anti-β-actin (66009, 1:1000, Proteintech, Rosemont, IL USA). Secondary antibodies used are HRP-conjugated goat anti-mouse (SA00001, 1:2500, Proteintech) and goat anti-rabbit (7074, 1:2500, Cell Signaling Technology).
Western Blot examined and quantified the tight junction proteins in brain tissues.

[8] = IA injection 0.3%, 15 mice per group, number of mice

## CCO [ethyl alcohol]
[1]; IA injection 0.3%, 15 mice per group
  tested animals that experienced adverse effects: less than 50%
[1]; [8]
  Immediate Sudden Death: 0
  Intermediate-lasting epilepsy post-injection leading to death: 0
  Long-lasting epilepsy post-injection leading death: 0
  Moderate-lasting epilepsy post-injection and survival to fully recovery: 3
  Transient, mild, or occasional epilepsy post-injection and survival to fully recovery: 3
[1]; IA injection 0.3%, 15 mice per group, listed as EA
  Mortality: 0%
[1]; repeated comparative experiments of IA EA and IA NEO100
  overall mortality rate: less than or equal to 1%
[2]; IA EA at 0.3%, 1%, and 3%, mice, superior and sagittal views
  spread of EB dye inside the brain tissues: homogenized, evenly spread EB dye inside the brain tissues is observed
[2]; IA agent at 0.1%
  EB dye: Observed
  EB dye penetration level: Widely
  Patchy, or punctate pattern of EB dye: Not
[2]; IA agent at 0.3%
  EB dye: Observed
  EB dye penetration level: Widely
  Patchy, or punctate pattern of EB dye: Not
[2]; IA agent at 3%
  EB dye: Observed
  EB dye penetration level: Widely
  Patchy, or punctate pattern of EB dye: Not
[2]; IA agent at 5%
  EB dye: Observed
  EB dye penetration level: Widely
  Patchy, or punctate pattern of EB dye: Not
[3]; 0.3% EA mixed with 2% EB given intravenously (negative control route), mice
  extravasated EB dye in brain after intravenous EA: No extravasated EB dye in any parts of the brain
[3]; IA 0.3% EA then IV 2% EB, euthanized immediately, mice
  BBB opening at 0 min time point: immediate, homogeneous, and highly efficient BBB opening
[3]; IA 0.3% ethyl alcohol, EB at 15, 60, 120, 240 min after, mice
  level of blue color observed in the brain as lagged time of EB administration increased: decreased
[3]; IA EA
  interval window of the breached BBB: about 2 hours
[3]; IA/intracardiac 0.3% EA, mice
  adverse effects: occasional adverse effects, such as mild epilepsy, but no moderate to severe epilepsy and sudden death were observed
[3]; iv, 0.25 h
  duration of transient BBB opening: ≤ 120 min
Brain tumor
  anti-PD-1 antibody brain tumor entry: can mediate checkpoint inhibitor anti-PD-1 antibody brain tumor entry
[4]
  tinted blue color (extravasated Evans blue) in brain: observed in all treatment groups
[5]; 300 μL 3% EA in 2% EB, microcatheter at origin of MCA
  extent of BBB opening (EB dye penetration): site-specific BBB opening, which is limited to the area supplied by the MCA only
[5]; EA 0.1% to 0.5%, microcatheter in left ICA
  delivery of EB dye to target area: can be used to deliver EB dye to the left hemisphere of the brain
[6]
  solubility in water: infinitely soluble (fully miscible)
[7]
  penetration and spread of Alexa Fluor 647-labeled anti-human IgG antibodies in the brain: significantly improve the penetration and spread
Syngeneic mouse glioma
  replenishment of CD8+ T lymphocytes inside the tumor: significantly enhance the replenishment of CD8+ T lymphocytes
Tight junction proteins
  time for which tight junction proteins in the BBB are reduced: about 120 minutes
